Laboratory results reported in the supplement of paper PMC11451515.

Tested on: P12-Ichikawa
Experiment: cell viability relative to DMSO control; higher = less cytotoxic
Details: 48 h
How it was run: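 NOMO1 or SEM cells were plated at 500 cells/well and P12-Ichikawa cells at 1000 cells/well in 1536-well plates (5 μl), after each leukemia line had been adapted for at least four passages in each medium. Pin dosing delivered library compounds in DMSO at 11 threefold concentrations, 47 μM to 0.79 nM. CellTiter-Glo One luminescence was read after 48 h at 37°C. Viability is reported as a per-plate percentage of DMSO wells, with cell-free wells as background.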

[1] = HPLM + 10% dialyzed FBS, 0.000781 µM
[2] = HPLM + 10% dialyzed FBS, 0.00234 µM
[3] = HPLM + 10% dialyzed FBS, 0.00702 µM
[4] = HPLM + 10% dialyzed FBS, 0.0211 µM
[5] = HPLM + 10% dialyzed FBS, 0.0632 µM
[6] = HPLM + 10% dialyzed FBS, 0.19 µM
[7] = HPLM + 10% dialyzed FBS, 0.569 µM
[8] = HPLM + 10% dialyzed FBS, 1.71 µM
[9] = HPLM + 10% dialyzed FBS, 5.12 µM
[10] = HPLM + 10% dialyzed FBS, 15.4 µM
[11] = HPLM + 10% dialyzed FBS, 46.1 µM
[12] = RPMI 5 mM glucose + 10% FBS, 0.000781 µM
[13] = RPMI 5 mM glucose + 10% FBS, 0.00234 µM
[14] = RPMI 5 mM glucose + 10% FBS, 0.00702 µM
[15] = RPMI 5 mM glucose + 10% FBS, 0.0211 µM
[16] = RPMI 5 mM glucose + 10% FBS, 0.0632 µM
[17] = RPMI 5 mM glucose + 10% FBS, 0.19 µM
[18] = RPMI 5 mM glucose + 10% FBS, 0.569 µM
[19] = RPMI 5 mM glucose + 10% FBS, 1.71 µM
[20] = RPMI 5 mM glucose + 10% FBS, 5.12 µM
[21] = RPMI 5 mM glucose + 10% FBS, 15.4 µM
[22] = RPMI 5 mM glucose + 10% FBS, 46.1 µM
[23] = RPMI 5 mM glucose + 10% dialyzed FBS, 0.000781 µM
[24] = RPMI 5 mM glucose + 10% dialyzed FBS, 0.00234 µM
[25] = RPMI 5 mM glucose + 10% dialyzed FBS, 0.00702 µM
[26] = RPMI 5 mM glucose + 10% dialyzed FBS, 0.0211 µM
[27] = RPMI 5 mM glucose + 10% dialyzed FBS, 0.0632 µM
[28] = RPMI 5 mM glucose + 10% dialyzed FBS, 0.19 µM
[29] = RPMI 5 mM glucose + 10% dialyzed FBS, 0.569 µM
[30] = RPMI 5 mM glucose + 10% dialyzed FBS, 1.71 µM
[31] = RPMI 5 mM glucose + 10% dialyzed FBS, 5.12 µM
[32] = RPMI 5 mM glucose + 10% dialyzed FBS, 15.4 µM
[33] = RPMI 5 mM glucose + 10% dialyzed FBS, 46.1 µM

Row | SMILES | cell viability [1] | cell viability [2] | cell viability [3] | cell viability [4] | cell viability [5] | cell viability [6] | cell viability [7] | cell viability [8] | cell viability [9] | cell viability [10] | cell viability [11] | cell viability [12] | cell viability [13] | cell viability [14] | cell viability [15] | cell viability [16] | cell viability [17] | cell viability [18] | cell viability [19] | cell viability [20] | cell viability [21] | cell viability [22] | cell viability [23] | cell viability [24] | cell viability [25] | cell viability [26] | cell viability [27] | cell viability [28] | cell viability [29] | cell viability [30] | cell viability [31] | cell viability [32] | cell viability [33]
1 | C[C@]1(c2nc3c(C(N)=O)cccc3[nH]2)CCCN1 | 78.7% | 83.9% | 79.3% | 88.8% | 82.2% | 87.2% | 88.4% | 83.2% | 81.3% | 89.5% | 72.4% | 70.9% | 78.2% | 74.9% | 82.6% | 82.9% | 72.9% | 77.7% | 72.4% | 83.3% | 80.4% | 5.38% | 78.1% | 74.3% | 74.3% | 81.4% | 83.5% | 76.9% | 79% | 81.6% | 72.8% | 82.1% | 2.96%
2 | CN1CCCN=C1/C=C/c1cccs1.O=C(O)c1cc2ccccc2c(Cc2c(O)c(C(=O)O)cc3ccccc23)c1O | 114% | 117% | 118% | 122% | 112% | 111% | 111% | 111% | 103% | 25% | 10.2% | 109% | 121% | 114% | 122% | 114% | 114% | 105% | 114% | 110% | 115% | 101% | 114% | 123% | 115% | 115% | 120% | 115% | 108% | 112% | 114% | 98.2% | 82.9%
3 | CCn1c(-c2nonc2N)nc2cnc(Oc3cccc(NC(=O)c4ccc(OCCN5CCOCC5)cc4)c3)cc21 | 110% | 107% | 111% | 111% | 112% | 109% | 112% | 116% | 94.9% | 77% | 70.1% | 106% | 122% | 107% | 115% | 107% | 113% | 98.5% | 102% | 89.5% | 66.3% | 55.4% | 104% | 116% | 127% | 117% | 115% | 124% | 117% | 102% | 102% | 74.9% | 69.5%
4 | Cc1cn([C@@H]2O[C@H](CO)[C@@H](O)[C@@H]2F)c(=O)[nH]c1=O | 103% | 112% | 116% | 122% | 116% | 122% | 132% | 124% | 126% | 122% | 123% | 101% | 115% | 116% | 120% | 124% | 127% | 119% | 129% | 130% | 123% | 17.6% | 97% | 110% | 111% | 113% | 121% | 126% | 121% | 123% | 123% | 127% | 64.6%
5 | C[S+](=O)([O-])N1CCc2c(-c3cnc(N)nc3)nc(N3CCOCC3)nc21 | 110% | 115% | 110% | 120% | 111% | 119% | 115% | 93.6% | 104% | 107% | 98.5% | 105% | 97.8% | 114% | 106% | 102% | 108% | 103% | 73% | 84.8% | 79.6% | 71.8% | 98.2% | 116% | 110% | 119% | 112% | 115% | 107% | 85.6% | 103% | 85.4% | 78.5%
6 | C[S+]([O-])(=O)C1=CC=C(C=C1)C/2=C(/C(=O)OC2)C3=CC=CC=C3 | 113% | 120% | 112% | 122% | 126% | 126% | 117% | 125% | 123% | 125% | 122% | 108% | 125% | 112% | 115% | 124% | 133% | 141% | 135% | 134% | 132% | 131% | 107% | 120% | 115% | 110% | 123% | 120% | 120% | 118% | 125% | 121% | 109%
7 | COC(=O)[C@@H]1[C@H]2C[C@H]3c4[nH]c5ccccc5c4CCN3C[C@@H]2CC[C@@H]1O | 113% | 118% | 122% | 116% | 122% | 128% | 121% | 117% | 20.8% | 14.4% | 12.4% | – | – | – | – | – | – | – | – | – | – | – | 103% | 114% | 114% | 124% | 111% | 124% | 127% | 128% | 70.6% | 32.9% | 17.9%
8 | Cc1cc(C(C)(C)C)c(O)c(C)c1CC1=NCCN1 | 96.4% | 98.3% | 105% | 98.3% | 100% | 104% | 110% | 96.6% | 97.5% | 71.1% | 69.5% | 92.6% | 98.5% | 98.5% | 106% | 99.2% | 96.6% | 99.1% | 93.8% | 103% | 63.7% | 60.5% | 89.8% | 89% | 94.4% | 95.5% | 94.5% | 104% | 97.9% | 105% | 98.7% | 53.8% | 48.9%
